Laboratory results taken from ChEMBL document CHEMBL1777681, “Structure and activity relationships of tartrate-based TACE inhibitors” (Bioorg Med Chem Lett, 2010).
pKi: −log10 of the molar value.

Tests used:
[1] = target: T1, Disintegrin and metalloproteinase domain-containing protein 17 (Homo sapiens, UniProt P78536); assay: Inhibition of TACE
[2] = target: T1, Disintegrin and metalloproteinase domain-containing protein 17; assay: Inhibition of TACE at 500 nM
Matrilysin = target: T2, Matrilysin (Homo sapiens, UniProt P09237); assay: Inhibition of MMP7
T2 sequence (P09237 whole entry): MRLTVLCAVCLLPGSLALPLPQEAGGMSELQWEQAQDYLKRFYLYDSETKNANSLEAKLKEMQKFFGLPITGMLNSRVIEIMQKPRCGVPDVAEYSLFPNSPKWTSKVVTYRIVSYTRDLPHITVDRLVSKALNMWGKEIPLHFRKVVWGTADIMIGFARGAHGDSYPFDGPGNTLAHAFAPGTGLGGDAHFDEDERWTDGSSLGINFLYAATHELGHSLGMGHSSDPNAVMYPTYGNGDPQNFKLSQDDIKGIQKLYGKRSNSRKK

[3] = target: Matrix metalloproteinase-9 (Homo sapiens, UniProt P14780); assay: Inhibition of MMP9
Collagenase 3 = Collagenase 3 (Homo sapiens, UniProt P45452); assay: Inhibition of MMP13
[4] = target: T3, Disintegrin and metalloproteinase domain-containing protein 10 (Homo sapiens, UniProt O14672); assay: Inhibition of ADAM10
T3 sequence (O14672 whole entry): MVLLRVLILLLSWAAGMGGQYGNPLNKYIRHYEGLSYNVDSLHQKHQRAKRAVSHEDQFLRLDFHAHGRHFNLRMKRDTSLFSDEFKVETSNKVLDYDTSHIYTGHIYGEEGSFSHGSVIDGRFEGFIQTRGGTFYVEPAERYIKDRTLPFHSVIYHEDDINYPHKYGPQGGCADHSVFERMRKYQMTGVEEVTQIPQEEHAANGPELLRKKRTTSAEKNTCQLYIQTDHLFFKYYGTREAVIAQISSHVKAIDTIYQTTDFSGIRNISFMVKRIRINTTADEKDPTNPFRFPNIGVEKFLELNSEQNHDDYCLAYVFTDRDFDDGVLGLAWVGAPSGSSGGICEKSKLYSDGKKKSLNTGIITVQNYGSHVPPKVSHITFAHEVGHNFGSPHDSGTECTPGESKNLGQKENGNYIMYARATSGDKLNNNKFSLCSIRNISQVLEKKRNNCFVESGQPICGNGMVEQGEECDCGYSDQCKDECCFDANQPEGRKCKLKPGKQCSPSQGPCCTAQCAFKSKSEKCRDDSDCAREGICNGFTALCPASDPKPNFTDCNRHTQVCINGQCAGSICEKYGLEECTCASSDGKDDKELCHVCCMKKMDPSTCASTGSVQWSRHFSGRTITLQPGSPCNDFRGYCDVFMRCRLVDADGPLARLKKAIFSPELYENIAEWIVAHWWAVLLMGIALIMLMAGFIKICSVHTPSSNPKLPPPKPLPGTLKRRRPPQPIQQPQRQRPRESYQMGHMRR

[5] = Bioavailability in Sprague-Dawley rat at 10 mg/kg, po; format: ADME, organism-based; details: in vivo
Interstitial collagenase = target: T4, Interstitial collagenase (Homo sapiens, UniProt P03956); assay: Inhibition of MMP1
T4 sequence (P03956 whole entry): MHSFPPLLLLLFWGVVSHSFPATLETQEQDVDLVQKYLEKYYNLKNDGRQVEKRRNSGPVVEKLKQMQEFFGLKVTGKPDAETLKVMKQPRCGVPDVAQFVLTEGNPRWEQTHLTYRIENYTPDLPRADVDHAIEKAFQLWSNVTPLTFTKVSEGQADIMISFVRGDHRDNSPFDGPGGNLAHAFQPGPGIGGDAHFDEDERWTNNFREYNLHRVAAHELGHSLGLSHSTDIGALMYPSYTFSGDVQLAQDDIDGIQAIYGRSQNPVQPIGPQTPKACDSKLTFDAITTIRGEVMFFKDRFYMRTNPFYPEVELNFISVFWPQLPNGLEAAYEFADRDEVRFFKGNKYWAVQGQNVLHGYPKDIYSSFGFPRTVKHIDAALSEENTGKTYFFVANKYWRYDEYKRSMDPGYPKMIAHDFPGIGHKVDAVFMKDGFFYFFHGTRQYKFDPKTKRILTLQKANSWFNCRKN

[6] = target: 72 kDa type IV collagenase (Homo sapiens, UniProt P08253); assay: Inhibition of MMP2
[7] = AUC in Sprague-Dawley rat at 10 mg/kg, po; format: ADME, organism-based; parameters: dose 10 mg/kg, route oral; details: plasma
[8] = AUC in Sprague-Dawley rat at 3 mg/kg, iv; format: ADME, organism-based; parameters: dose 3 mg/kg, route intravenous; details: plasma
[9] = Clearance in Sprague-Dawley rat at 3 mg/kg, iv; format: ADME, organism-based; parameters: dose 3 mg/kg, route intravenous; details: in vivo
[10] = target: Matrix metalloproteinase-14 (Homo sapiens, UniProt P50281); assay: Inhibition of MMP14
[11] = Half life in Sprague-Dawley rat at 10 mg/kg, po; format: ADME, organism-based; parameters: dose 10 mg/kg, route oral; details: in vivo
Stromelysin-1 = Stromelysin-1 (Homo sapiens, UniProt P08254); assay: Inhibition of MMP3
Chain of Stromelysin-1 (P08254 whole entry): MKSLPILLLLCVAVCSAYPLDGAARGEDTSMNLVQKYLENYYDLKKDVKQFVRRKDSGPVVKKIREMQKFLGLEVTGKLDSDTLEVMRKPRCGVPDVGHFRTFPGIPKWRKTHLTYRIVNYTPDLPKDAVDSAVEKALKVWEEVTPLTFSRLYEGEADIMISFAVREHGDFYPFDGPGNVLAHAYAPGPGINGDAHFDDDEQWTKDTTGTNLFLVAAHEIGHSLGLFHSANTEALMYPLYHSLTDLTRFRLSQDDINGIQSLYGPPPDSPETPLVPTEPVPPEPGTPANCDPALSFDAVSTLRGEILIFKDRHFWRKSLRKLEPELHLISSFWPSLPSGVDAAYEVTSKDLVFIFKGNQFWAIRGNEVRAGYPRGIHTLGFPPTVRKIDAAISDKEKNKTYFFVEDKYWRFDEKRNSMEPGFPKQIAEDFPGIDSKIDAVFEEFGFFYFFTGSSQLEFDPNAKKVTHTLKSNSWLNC

T1 sequence (P78536 whole entry, the tested form may be a part): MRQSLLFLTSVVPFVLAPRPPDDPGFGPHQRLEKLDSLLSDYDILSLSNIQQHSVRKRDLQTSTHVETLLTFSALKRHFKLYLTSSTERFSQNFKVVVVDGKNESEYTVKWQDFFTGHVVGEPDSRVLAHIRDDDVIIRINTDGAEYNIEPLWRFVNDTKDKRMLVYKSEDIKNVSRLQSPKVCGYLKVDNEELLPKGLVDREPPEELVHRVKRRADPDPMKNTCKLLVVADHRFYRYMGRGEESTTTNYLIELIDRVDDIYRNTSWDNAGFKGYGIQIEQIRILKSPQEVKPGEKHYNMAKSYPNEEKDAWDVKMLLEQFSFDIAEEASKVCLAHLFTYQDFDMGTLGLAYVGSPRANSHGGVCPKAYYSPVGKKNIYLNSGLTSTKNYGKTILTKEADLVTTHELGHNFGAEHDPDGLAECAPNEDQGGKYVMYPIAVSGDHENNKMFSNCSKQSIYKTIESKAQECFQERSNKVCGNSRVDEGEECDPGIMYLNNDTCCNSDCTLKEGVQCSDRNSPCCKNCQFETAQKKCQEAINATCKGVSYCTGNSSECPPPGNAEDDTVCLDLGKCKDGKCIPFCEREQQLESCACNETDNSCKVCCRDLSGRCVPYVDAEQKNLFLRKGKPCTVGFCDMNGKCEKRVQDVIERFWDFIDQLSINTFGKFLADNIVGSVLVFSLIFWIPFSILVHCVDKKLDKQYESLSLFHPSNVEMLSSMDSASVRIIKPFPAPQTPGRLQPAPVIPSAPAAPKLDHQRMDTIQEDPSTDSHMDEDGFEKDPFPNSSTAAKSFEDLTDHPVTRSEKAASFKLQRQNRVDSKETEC
Chain of 72 kDa type IV collagenase (P08253 whole entry): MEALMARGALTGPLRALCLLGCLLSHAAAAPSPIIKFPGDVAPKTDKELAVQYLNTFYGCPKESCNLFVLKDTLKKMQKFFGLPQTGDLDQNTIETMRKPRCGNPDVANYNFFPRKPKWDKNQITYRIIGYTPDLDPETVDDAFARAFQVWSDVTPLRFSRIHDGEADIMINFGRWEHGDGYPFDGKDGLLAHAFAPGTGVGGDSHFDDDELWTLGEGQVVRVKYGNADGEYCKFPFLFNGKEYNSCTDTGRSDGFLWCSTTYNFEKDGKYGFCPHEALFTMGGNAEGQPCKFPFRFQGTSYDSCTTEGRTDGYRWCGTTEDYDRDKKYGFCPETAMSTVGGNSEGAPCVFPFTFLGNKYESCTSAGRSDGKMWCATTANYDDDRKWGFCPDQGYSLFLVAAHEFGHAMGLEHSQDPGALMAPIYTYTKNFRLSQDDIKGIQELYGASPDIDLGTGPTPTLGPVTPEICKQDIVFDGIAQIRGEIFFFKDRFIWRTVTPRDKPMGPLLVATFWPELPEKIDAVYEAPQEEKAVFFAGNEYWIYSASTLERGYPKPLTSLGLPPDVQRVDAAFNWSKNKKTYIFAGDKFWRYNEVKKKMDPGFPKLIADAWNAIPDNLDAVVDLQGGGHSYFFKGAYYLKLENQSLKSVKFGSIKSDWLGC
Chain of Matrix metalloproteinase-9 (P14780 whole entry): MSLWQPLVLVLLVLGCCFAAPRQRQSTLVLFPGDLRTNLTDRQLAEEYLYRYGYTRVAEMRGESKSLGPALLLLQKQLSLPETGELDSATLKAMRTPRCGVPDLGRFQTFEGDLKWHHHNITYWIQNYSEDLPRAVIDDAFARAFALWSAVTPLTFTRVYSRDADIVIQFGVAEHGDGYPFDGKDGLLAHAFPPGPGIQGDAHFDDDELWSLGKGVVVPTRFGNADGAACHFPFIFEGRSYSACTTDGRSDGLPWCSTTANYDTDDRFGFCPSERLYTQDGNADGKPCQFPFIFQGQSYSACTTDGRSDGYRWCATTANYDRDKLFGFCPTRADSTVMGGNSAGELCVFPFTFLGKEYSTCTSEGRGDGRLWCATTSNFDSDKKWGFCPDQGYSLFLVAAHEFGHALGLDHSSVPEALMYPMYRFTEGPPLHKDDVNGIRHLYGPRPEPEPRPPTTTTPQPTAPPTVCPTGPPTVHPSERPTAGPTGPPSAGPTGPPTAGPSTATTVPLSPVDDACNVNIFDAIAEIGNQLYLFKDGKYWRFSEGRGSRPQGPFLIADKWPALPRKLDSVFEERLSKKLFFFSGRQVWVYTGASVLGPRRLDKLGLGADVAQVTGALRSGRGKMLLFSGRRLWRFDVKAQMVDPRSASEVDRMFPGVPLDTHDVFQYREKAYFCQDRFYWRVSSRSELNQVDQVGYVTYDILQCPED

SMILES | pKi [1] | also measured
O=C(NCc1ccc(-c2ccccc2)nc1)[C@H](O)[C@@H](O)C(=O)N1CCCC1c1cccc(Cl)c1 (mixture of isomers) | 6.51 | 
O=C(NCc1ccc(Cc2cccc3ccccc23)s1)[C@H](O)[C@@H](O)C(=O)N1CCC[C@@H]1c1cccc(Cl)c1 |  | inhibition [2]: 50%
N#Cc1sccc1-c1ccc(CNC(=O)[C@H](O)[C@@H](O)C(=O)N2CCC[C@@H]2c2ccccc2)cc1 | 8.70 | 
O=C(NCc1ccc(-c2cccs2)cc1)[C@H](O)[C@@H](O)C(=O)N1CCC[C@@H]1c1ccccc1 | 7.55 | 
O=C(NCc1ccc(-c2nccs2)cc1)[C@H](O)[C@@H](O)C(=O)N1CCCC1c1cccc(Cl)c1 (mixture of isomers) | 7.13 | 
O=C(NCc1ccc(-c2ccsc2)cc1)[C@H](O)[C@@H](O)C(=O)N1CCC[C@@H]1c1ccccc1 | 7.89 | 
O=C(NCc1cccs1)[C@H](O)[C@@H](O)C(=O)N1CCCC1c1cccc(Cl)c1 (stereo partly specified) |  | inhibition [2]: 44%
N#Cc1ccccc1-c1ccc(CNC(=O)[C@H](O)[C@@H](O)C(=O)N2CCC[C@@H]2c2ccccc2)cc1 | 7.77 | 
O=C(NCc1ccc(Cc2ccc(Cl)cc2)s1)[C@H](O)[C@@H](O)C(=O)N1CCC[C@@H]1c1cccc(Cl)c1 | 7.43 | 
O=C(NCc1ccc(-n2ccnc2)cc1)[C@H](O)[C@@H](O)C(=O)N1CCCC1c1cccc(Cl)c1 (mixture of isomers) | 6.57 | 
O=C(NCc1ccc(-c2ccon2)cc1)[C@H](O)[C@@H](O)C(=O)N1CCC[C@@H]1c1ccccc1 | 8.10 | 
N#Cc1ccccc1N1CC2C(CNC(=O)[C@H](O)[C@@H](O)C(=O)N3CCC[C@@H]3c3ccccc3)C2C1 (stereo partly specified) | 7.92 | 
C[C@@H](NC(=O)[C@H](O)[C@@H](O)C(=O)N1CCC[C@@H]1c1cccc(Cl)c1)c1ccc(-n2cccn2)cc1 | 9.07 | pKi (Matrilysin): 5.42; pKi [3]: 4.05; pKi (Collagenase 3): 5.48; pKi [4]: 6.78; bioavailability [5]: 20%; pKi (Interstitial collagenase): < 4.00; pKi [6]: 4.36; AUC [7]: 2.1 µM·h; AUC [8]: 3.1 µM·h; clearance [9]: 35 mL/min/kg; pKi [10]: 5.96; half-life [11]: 36 min
O=C(NCc1cc(Cc2ccccc2)cs1)[C@H](O)[C@@H](O)C(=O)N1CCCC1c1cccc(Cl)c1 (stereo partly specified) | 7.35 | 
O=C(NCc1ccc(-n2cccn2)cc1)[C@H](O)[C@@H](O)C(=O)N1CCCC1c1cccc(Cl)c1 (mixture of isomers) | 8.40 | pKi (Matrilysin): 4.33; pKi [3]: 4.96; pKi (Collagenase 3): 5.46; pKi (Stromelysin-1): 4.72; pKi [4]: 6.22; pKi (Interstitial collagenase): < 4.00; pKi [6]: 5.72; pKi [10]: 6.92
O=C(NCc1ccc(-c2cccnc2)cc1)[C@H](O)[C@@H](O)C(=O)N1CCC[C@@H]1c1ccccc1 | 7.44 | 
O=C(NCc1ccc(-c2ccccc2)cn1)[C@H](O)[C@@H](O)C(=O)N1CCCC1c1cccc(Cl)c1 (mixture of isomers) | 8.22 | 
N#Cc1cnccc1-c1ccc(CNC(=O)[C@H](O)[C@@H](O)C(=O)N2CCC[C@@H]2c2ccccc2)cc1 | 8.30 | 
N#Cc1ccccc1N1CCC(CNC(=O)[C@H](O)[C@@H](O)C(=O)N2CCCC2c2cccc(Cl)c2)CC1 (mixture of isomers) | 8.40 | 
O=C(NCc1ccc(Cn2c(C(F)(F)F)nc3ccccc32)s1)[C@H](O)[C@@H](O)C(=O)N1Cc2ccccc2C1 | 9.70 | 
C[C@@H]1CN(c2ccccc2C#N)CCC1CNC(=O)[C@H](O)[C@@H](O)C(=O)N1CCC[C@@H]1c1ccccc1 (stereo partly specified) | 8.70 | 
O=C(NCc1ccc(Cc2ccsc2)s1)[C@H](O)[C@@H](O)C(=O)N1CCC[C@@H]1c1cccc(Cl)c1 | 7.96 | 
O=C(NCc1ccc(-c2cscn2)cc1)[C@H](O)[C@@H](O)C(=O)N1CCCC1c1cccc(Cl)c1 (mixture of isomers) | 7.74 | 
O=C(NCc1ccc(-c2csnn2)cc1)[C@H](O)[C@@H](O)C(=O)N1CCCC1c1cccc(Cl)c1 (mixture of isomers) | 8.52 | 
C[C@H]1CN(c2ccccc2C#N)CCC1CNC(=O)[C@H](O)[C@@H](O)C(=O)N1CCC[C@@H]1c1ccccc1 (stereo partly specified) | 6.50 | 
O=C(NCc1ccc(-c2ccccc2)cc1)[C@H](O)[C@@H](O)C(=O)N1CCC[C@@H]1c1ccccc1 | 7.66 | 

Second part, led by results:

pKi [1] | SMILES | also measured
8.40 | Cc1nc2ccccc2n1Cc1ccc(CNC(=O)[C@H](O)[C@@H](O)C(=O)N2CCC[C@@H]2c2cccc(Cl)c2)s1 | 
7.70 | O=C(NCc1ccc(Cc2ccccc2)s1)[C@H](O)[C@@H](O)C(=O)N1CCC[C@@H]1c1cccc(Cl)c1 | 
7.82 | O=C(NCc1ccc(-c2ccncc2)cc1)[C@H](O)[C@@H](O)C(=O)N1CCC[C@@H]1c1ccccc1 | 
7.43 | O=C(NCc1ccc(Cn2ccnc2)s1)[C@H](O)[C@@H](O)C(=O)N1CCC[C@@H]1c1cccc(Cl)c1 | 
8.70 | Cc1nc2ccccc2n1Cc1ccc(CNC(=O)[C@H](O)[C@@H](O)C(=O)N2CCC[C@@H]2c2csc(N)n2)s1 | 
7.32 | O=C(NCc1ccc(Cc2cccc(Cl)c2)s1)[C@H](O)[C@@H](O)C(=O)N1CCC[C@@H]1c1cccc(Cl)c1 | 
7.92 | Cc1nc2ccccc2n1Cc1ccc(CNC(=O)[C@H](O)[C@@H](O)C(=O)N2CCCC2c2cccnc2)s1 (mixture of isomers) | 
8.03 | O=C(NCc1ccc(Cc2ccccc2Cl)s1)[C@H](O)[C@@H](O)C(=O)N1CCC[C@@H]1c1cccc(Cl)c1 | 
8.40 | Cc1nc2ccccc2n1Cc1ccc(CNC(=O)[C@H](O)[C@@H](O)C(=O)N2CCCC2c2cccs2)s1 (mixture of isomers) | 
6.53 | Cc1nc2ccccc2n1-c1ccc(CNC(=O)[C@H](O)[C@@H](O)C(=O)N2CCCC2c2cccc(Cl)c2)cc1 (mixture of isomers) | 
8.10 | Cc1nc2ccccc2n1Cc1ccc(CNC(=O)[C@H](O)[C@@H](O)C(=O)N2CCCC2c2ccccn2)s1 (mixture of isomers) | 
8.52 | COc1ccccc1Cc1ccc(CNC(=O)[C@H](O)[C@@H](O)C(=O)N2CCC[C@@H]2c2cccc(Cl)c2)s1 | 
9.30 | Cc1nc2ccccc2n1Cc1ccc(CNC(=O)[C@H](O)[C@@H](O)C(=O)N2Cc3ccccc3C2)s1 | 
8.05 | Cc1nc2ccccc2n1Cc1ccc(CNC(=O)[C@H](O)[C@@H](O)C(=O)N2CCCC2c2nccs2)s1 (mixture of isomers) | 
7.44 | Cc1nc2ccccc2n1Cc1ccc(CNC(=O)[C@H](O)[C@@H](O)C(=O)N2CCCC2c2ccncc2)s1 (mixture of isomers) | 
